# Measurements as given in patent US20130005678A1, “Methods and Compositions for Treating or Ameliorating Cancer Using Gemcitabine-5'-Elaidate” (CLAVIS PHARMA ASA, priority 2010, published 2013).
# Assays:
# [1] = system: human glioma cells U373; assay: Antitumor activity in human glioma U373 grown intracerebrally; format: in vivo
# Procedure: NMRI male mice are inoculated with human glioma cells U373 intracerebrally. The tumors at the injection site (at the surface of the brain), as well as the intracerebral tumors, are evaluated. Gemcitabine-5′-elaidic acid ester is administered intraperitoneally on Days 4-8, 11-15, 18-22, and 25-29 and is active at 4 mg/kg per injection.
# [2] = system: WiDr human colon carcinoma; assay: Combination study in vitro, growth inhibition, median effect analysis (WiDr); format: cell-based
# Procedure: (§1) The cell lines A549 human NSCLC and WiDr human colon carcinoma are used to determine the combination index and also the effect of Gemcitabine-5′-elaidate on the cell cycle. A sulforhodamine B colorimetric assay is used to determine growth inhibition after 72 hours. Pemetrexed combinations are tested using the MTT assay. Combinations with pemetrexed are also tested in the WiDr-LF cell line, which are WiDr cells cultured under low folate conditions. The IC25 and IC50 values (inhibitory concentrations at 25% or 50%, respectively) are calculated. The IC25 value is used for combinations with serial dilutions of oxaliplatin or docetaxel, and the IC50 value is used for pemetrexed combinations. Median effect analysis is performed.
# [3] = system: A549; assay: Platinum accumulation in DNA (A549); format: cell-based, human; conditions: oxaliplatin 200 μM combined with Gemcitabine-5′-elaidate 0.004 μM
# Procedure: The effect on DNA platinum accumulation in DNA after exposure to oxaliplatin and oxaliplatin combined with Gemcitabine-5′-elaidate (oxaliplatin [200 μM] combined with Gemcitabine-5′-elaidate [0.004 μM]) is also determined.
# [4] = system: CEM and CEM-Ara-C/8; assay: Tumor cell killing in vitro in CEM and hENT1-deficient CEM-Ara-C/8 (FIGS. 5A-5B); format: cell-based; conditions: CEM vs hENT1-deficient CEM-Ara-C/8
# Text: CEM: T-lymphoblastic leukemia cell line. CEM-Ara-C/8: Clonal derivative of CEM with hENT1 transporter deficiency.
# [5] = system: P388 leukemia cells; assay: Antitumor effect in P388 murine leukemia model; format: in vivo; conditions: B6D2F1 female mice; intraperitoneal; single doses or daily for 10 consecutive days; all tested doses and schedules
# [6] = system: A549 cell line; assay: Cell cycle analysis, flow cytometry with propidium iodide (A549); format: cell-based, human
# Procedure: (§2) The effect on cell cycle is determined after 72 h exposure using flow cytometry combined with propidium iodide staining For cell cycle analysis, the concentration range is from 0.0005 μM to 0.05 μM in the A549 cell line and from 0.001 μM to 0.1 μM in the WiDr cell line. […] The effect on cell cycle is obtained also for the combinations with pemetrexed.
# [7] = system: human glioma cells U373; assay: Antitumor activity in human glioma xenograft model U373 (subcutaneous); format: in vivo; conditions: NCR mice, intraperitoneal
# Text: NCR mice are inoculated subcutaneously on Day 0 with human glioma cells U373. Treatment (intraperitoneal) starts on Day 7, either every third day or weekly.
# [8] = system: WiDr cell line; assay: Cell cycle analysis, flow cytometry with propidium iodide (WiDr); format: cell-based, human
# Procedure: as §2
# [9] = system: pancreatic cancer; assay: Treatment of a pancreatic cancer patient with low hENT1 expression; format: in vivo, human
# Procedure: An individual is diagnosed with pancreatic cancer. The patient provides a sample. The sample contains cancerous cells from the patient. The sample comes from a biopsy of the tumor, from circulating tumor cells, or from another source.
# The sample is tested to determine the level of expression of hENT1 or another nucleoside transporter. The level is detected by immunohistochemistry, by determining the amount of mRNA relevant to hENT1 in the sample, or by other known means.
# The testing of the sample takes place at a testing facility. The physician or their staff ships the sample to this facility. The sample is fixed or frozen for shipment. The sample is mixed with an antibody prior to shipment and analyzed when it arrives at the facility or the sample is shipped with no antibody added prior to shipment.
# The nucleoside transporter level is compared to a control. The control is non-cancerous cells from the patient or is samples from another population. The control samples are analyzed at the same time as the sample or the analysis is based upon computer stored data where the comparison is done by using a rule based upon previously collected and characterized control data. This comparison allows for the classification of the sample as a “high,” “low,” or “normal,” sample based upon nucleoside transporter levels. […]
# [10] = system: A549 human NSCLC; assay: Combination study in vitro, growth inhibition, median effect analysis (A549); format: cell-based
# Procedure: as §1
# [11] = 72 hours, sulforhodamine B assay
# [12] = 72 h exposure, 0.001 μM to 0.1 μM
smiles,measurement,setting,value
CCCCCCCC/C=C/CCCCCCCC(=O)OC[C@H]1O[C@@H](n2ccc(N)nc2=O)C(F)(F)[C@@H]1O [gemcitabine-5′-elaidic acid ester],antitumor activity,"[1]; NMRI male mice, U373 intracerebrally, intraperitoneally Days 4-8, 11-15, 18-22, 25-29, 4 mg/kg per injection",active
same,activity intracerebrally,[1]; after intraperitoneal administration,active intracerebrally
same,combination effect with docetaxel,[2]; [11],antagonistic
same,combination effect with oxaliplatin,[2]; [11],synergistic
same,combination effect with pemetrexed,[2]; MTT assay,Antagonistic activity
same,"platinum adducts in DNA, oxaliplatin combined vs oxaliplatin alone",[3],but not in A549
same,tumor cell killing in relation to hENT1,[4],kills tumor cells in vitro independent of hENT1
same,antitumor activity,[5],significant antitumor activity
same,effect on cell cycle,"[6]; 72 h exposure, 0.0005 μM to 0.05 μM",no effect on cell cycle
same,"G0/G1 phase, combination with pemetrexed",[6]; increased from 8.8%,14.1%
same,"S phase, combination with pemetrexed",[6]; increased from 23.1%,28.5%
same,antitumor effect compared with gemcitabine,[7]; dosed Days 7 and 14 (weekly),better than that of gemcitabine
same,antitumor effect compared with gemcitabine,[7]; every third day schedule from Day 7,equal to gemcitabine
same,"G2/M phase, combination with pemetrexed",[8],only a marginal increase
same,S phase accumulation,[8]; [12],S phase accumulation at the two highest concentrations
same,sub G1 accumulation,[8]; [12],dose dependent sub G1 accumulation
same,response to treatment,[9],responds favorably
same,combination effect with docetaxel,[10]; [11],antagonistic
same,combination effect with oxaliplatin,[10]; [11],synergistic
same,combination effect with pemetrexed,[10]; MTT assay,Antagonistic activity
